Experimental data: ChEMBL document CHEMBL4177521, “Therapeutic Potential of Fatty Acid Amide Hydrolase, Monoacylglycerol Lipase, and N-Acylethanolamine Acid Amidase Inhibitors” (J Med Chem, 2017)
Blank lines part the entries; values can stand above or below the compound they belong to.

Legend:
[1] = biological target: T1, Fatty-acid amide hydrolase 2 (Homo sapiens, UniProt Q6GMR7); assay: Inhibition of recombinant human N-terminal FLAG-tagged/C-terminal Myc-His6 tagged FAAH2 (32 to 579 residues) expressed in COS7 cell membranes; type: cell-based
T1 sequence (Q6GMR7 whole entry): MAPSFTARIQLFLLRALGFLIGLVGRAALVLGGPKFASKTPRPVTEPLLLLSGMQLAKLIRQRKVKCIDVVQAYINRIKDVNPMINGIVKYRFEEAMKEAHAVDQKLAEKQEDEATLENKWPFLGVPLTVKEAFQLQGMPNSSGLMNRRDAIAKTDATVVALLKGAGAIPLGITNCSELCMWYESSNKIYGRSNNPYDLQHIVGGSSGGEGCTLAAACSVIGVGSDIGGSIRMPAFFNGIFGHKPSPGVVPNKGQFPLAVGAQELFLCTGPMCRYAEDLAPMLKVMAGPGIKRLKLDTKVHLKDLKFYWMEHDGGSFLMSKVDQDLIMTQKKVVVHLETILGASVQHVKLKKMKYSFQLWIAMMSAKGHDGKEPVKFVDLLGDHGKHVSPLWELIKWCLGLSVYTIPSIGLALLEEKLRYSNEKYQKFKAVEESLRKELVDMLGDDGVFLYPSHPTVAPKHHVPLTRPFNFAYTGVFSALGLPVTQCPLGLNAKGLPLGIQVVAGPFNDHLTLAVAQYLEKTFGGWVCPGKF

[2] = biological target: T2, Fatty-acid amide hydrolase 1 (Rattus norvegicus, UniProt P97612); assay: Inhibition of FAAH in Wistar rat brain membranes using [3H]-anandamide as substrate preincubated for 10 mins followed by substrate addition measured after 4 mins by liquid scintillation counting method; type: cell membranes, Membrane
T2 sequence (P97612 whole entry): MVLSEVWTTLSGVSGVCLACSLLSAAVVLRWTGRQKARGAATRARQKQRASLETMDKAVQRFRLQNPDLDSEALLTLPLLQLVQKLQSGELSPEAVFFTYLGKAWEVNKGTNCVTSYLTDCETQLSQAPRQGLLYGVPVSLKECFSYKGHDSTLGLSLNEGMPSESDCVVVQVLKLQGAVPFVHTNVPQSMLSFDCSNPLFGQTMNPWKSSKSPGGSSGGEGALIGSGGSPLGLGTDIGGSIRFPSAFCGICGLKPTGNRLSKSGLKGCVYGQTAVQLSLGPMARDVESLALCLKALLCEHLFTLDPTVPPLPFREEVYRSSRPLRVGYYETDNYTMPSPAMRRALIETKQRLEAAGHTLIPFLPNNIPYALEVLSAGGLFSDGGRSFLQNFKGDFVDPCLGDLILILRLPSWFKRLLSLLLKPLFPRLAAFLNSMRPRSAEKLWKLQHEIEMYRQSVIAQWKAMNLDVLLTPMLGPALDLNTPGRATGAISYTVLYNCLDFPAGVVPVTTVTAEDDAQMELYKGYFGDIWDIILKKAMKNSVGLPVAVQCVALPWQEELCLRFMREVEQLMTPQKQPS

[3] = biological target: T3, Monoglyceride lipase (Rattus norvegicus, UniProt Q8R431); assay: Inhibition of recombinant rat N-terminal histidine tagged MAGL expressed in Escherichia coli Rosetta 2 (DE3) pLysS cells preincubated for 10 mins followed by 2-OG substrate addition after 10 mins by LC/MS analysis
T3 sequence (Q8R431 whole entry): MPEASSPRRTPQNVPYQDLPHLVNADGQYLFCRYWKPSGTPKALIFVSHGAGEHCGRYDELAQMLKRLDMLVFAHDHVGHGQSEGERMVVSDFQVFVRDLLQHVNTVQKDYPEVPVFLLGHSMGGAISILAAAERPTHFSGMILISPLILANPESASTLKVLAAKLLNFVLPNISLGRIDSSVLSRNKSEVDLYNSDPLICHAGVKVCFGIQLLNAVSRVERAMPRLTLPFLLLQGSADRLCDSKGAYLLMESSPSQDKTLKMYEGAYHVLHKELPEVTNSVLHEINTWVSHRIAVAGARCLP

[4] = biological target: T3, Monoglyceride lipase; assay: Inhibition of rat cerebellar membranes MAGL-like activity preincubated for 30 mins followed by 2-AG substrate addition after 90 mins by HPLC analysis; parameters: species or system Cerebellum, Membrane
[5] = biological target: T2, Fatty-acid amide hydrolase 1; assay: Inhibition of Sprague-Dawley rat brain FAAH preincubated for 10 mins followed by [3H]-anandamide substrate addition after 30 mins by liquid scintillation counting method
[6] = Half life in rat plasma at 3 uM by LC/MS analysis; type: ADME, cell-free
[7] = biological target: T4, N-acylethanolamine-hydrolyzing acid amidase (Homo sapiens, UniProt Q02083); assay: Inhibition of recombinant human NAAA expressed in HEK293 cells preincubated for 10 mins followed by PAMCA substrate addition after 30 mins by fluorescence assay; type: cell-based
T4 sequence (Q02083 whole entry): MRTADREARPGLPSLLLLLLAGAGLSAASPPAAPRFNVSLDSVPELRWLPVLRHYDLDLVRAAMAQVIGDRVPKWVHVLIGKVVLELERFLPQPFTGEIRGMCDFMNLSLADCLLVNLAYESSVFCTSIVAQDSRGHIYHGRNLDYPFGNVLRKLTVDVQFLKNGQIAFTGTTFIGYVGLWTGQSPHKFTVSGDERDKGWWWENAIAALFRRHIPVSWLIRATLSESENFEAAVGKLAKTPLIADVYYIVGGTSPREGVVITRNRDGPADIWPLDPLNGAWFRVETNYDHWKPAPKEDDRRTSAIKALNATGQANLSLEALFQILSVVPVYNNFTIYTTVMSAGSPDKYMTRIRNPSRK

[8] = biological target: T3, Monoglyceride lipase; assay: Inhibition of rat MAGL
[9] = biological target: T5, Monoglyceride lipase (Mus musculus, UniProt O35678); assay: Inhibition of mouse MAGL
T5 sequence (O35678 whole entry): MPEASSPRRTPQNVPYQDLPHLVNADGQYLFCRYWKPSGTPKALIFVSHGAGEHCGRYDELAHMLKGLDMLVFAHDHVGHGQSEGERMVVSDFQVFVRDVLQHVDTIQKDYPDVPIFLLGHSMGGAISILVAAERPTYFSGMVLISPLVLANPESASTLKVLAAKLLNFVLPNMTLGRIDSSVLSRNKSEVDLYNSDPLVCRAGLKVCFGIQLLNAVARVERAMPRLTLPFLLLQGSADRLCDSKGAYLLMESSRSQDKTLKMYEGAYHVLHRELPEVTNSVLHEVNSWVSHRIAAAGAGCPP

[10] = biological target: T5, Monoglyceride lipase; assay: Inhibition of mouse MAGL preincubated for 30 mins followed by FP-Rh addition after 30 mins by gel-based ABPP assay
[11] = biological target: T3, Monoglyceride lipase; assay: Inhibition of rat MAGL preincubated for 30 mins followed by FP-Rh addition after 30 mins by gel-based ABPP assay
[12] = biological target: T4, N-acylethanolamine-hydrolyzing acid amidase; assay: Time dependent inhibition of recombinant human NAAA expressed in HEK293 cells by liquid scintillation counting method; type: cell-based
[13] = biological target: T4, N-acylethanolamine-hydrolyzing acid amidase; assay: Time dependent inhibition of recombinant human NAAA expressed in HEK293 cell membranes using [14C]-PEA as substrate by liquid scintillation counting method
[14] = Half life in pH 7.4 buffer; type: physicochemical
[15] = Half life in rat plasma; type: ADME, cell-free
[16] = Half life in pH 5.0 buffer; type: physicochemical
[17] = biological target: T2, Fatty-acid amide hydrolase 1; assay: Inhibition of rat FAAH assessed as reduction in [14C]oleamide conversion to oleic acid by Lineweaver-Burk plot analysis
[18] = biological target: T2, Fatty-acid amide hydrolase 1; assay: Inhibition of rat brain microsomal FAAH using N-(2-hydroxyethyl)-4-pyren-1-yl-butanamide as substrate after 60 mins by RP HPLC based fluorescence assay
[19] = biological target: T2, Fatty-acid amide hydrolase 1; assay: Inhibition of rat FAAH

SMILES: NC(=O)c1cccc(-c2cccc(OC(=O)NC3CCCCC3)c2)c1 [URB-597]
IC50 [1]: 5 nM

SMILES: O=C(NC1CCCCC1)Oc1cccc(-c2ccccc2)c1
IC50 [2]: 25.6 nM

IC50 [3]: 20 nM
SMILES: CCCCCCCCn1sc2ccccc2c1=O

SMILES: O=C1C=CC(=O)N1c1ccc2ccc3cccc4ccc1c2c34
IC50 [4]: 9200 nM

IC50 [5]: 5.8 nM
SMILES: COc1ccc(Cn2cc(CNC(=O)OCc3cn(Cc4cccc(OC)c4)nn3)nn2)cc1

IC50 [5]: 51500 nM
SMILES: O=C(NC1CCCCC1)OCc1ncn(Cc2ccccc2)n1

half-life at 3 µM [6]: > 5 min | IC50 [7]: 507 nM
SMILES: CC(C)(C)[C@@H]1OC(=O)[C@H]1NC(=O)OCc1ccc(-c2ccccc2)cc1

SMILES: CCCCCCCCn1sccc1=O
IC50 [3]: 88 nM

IC50 [8]: 0.589 nM | IC50 [9]: 0.309 nM
SMILES: O=C(N1CCN(C(c2ccccc2)c2ccccc2)CC1)n1cncn1

IC50 [10]: 15 nM | IC50 [11]: 43 nM
SMILES: O=C(OC(C(F)(F)F)C(F)(F)F)N1CCC(C(O)(c2ccc3c(c2)OCO3)c2ccc3c(c2)OCO3)CC1

SMILES: O=C(Oc1ccc([N+](=O)[O-])cc1)N1CCN(C(c2ccc(F)cc2)c2ccc(F)cc2)CC1
IC50 [8]: 1800 nM | IC50 [9]: 282 nM

IC50 [12]: 700 to 7200 nM | IC50 [13]: 700 to 7200 nM
SMILES: CC(=O)Oc1cccc2c1C(=O)c1c(OC(C)=O)cc(C(=O)O)cc1C2=O [DIACEREIN]

IC50 ([7]; hek293): 100 nM
SMILES: CCCCCCCCCCC(=O)N[C@H]1CNC1=O

IC50 [2]: 30 nM
SMILES: O=C(NC1CCCCC1)Oc1ccc(O)c(-c2ccccc2)c1

half-life [14]: > 24 h | half-life [15]: 3.33 h | half-life [16]: > 24 h
SMILES: O=C(CCCCCc1ccccc1)N1CCOC1=O

IC50 [7]: 280 nM
SMILES: O=C(CCCCCCC1CCCCC1)N[C@H]1CNC1=O

IC50 [8]: 1.1 nM | IC50 [9]: 0.219 nM
SMILES: O=C(N1CCN(C(c2ccc(F)cc2)c2ccc(F)cc2)CC1)n1cncn1

Ki [17]: 0.52 nM
SMILES: O=C(CCCCCCCCc1ccccc1)c1nc2ncccc2o1

IC50 [7]: 302 nM
SMILES: CC(C)(C)[C@@H]1OC(=O)[C@@H]1NC(=O)OCCCCCc1ccccc1

IC50 [18]: 5.3 nM
SMILES: O=C(NCCCCCCCn1nnc(-c2cccc(Cl)c2)n1)Oc1cccnc1

Ki [17]: 0.39 nM
SMILES: O=C(CCCCCCCc1ccccc1)c1nc2ncccc2o1

IC50 [18]: 200 nM
SMILES: O=C(NCCCCCCn1nnc(-c2cccc(Cl)c2)n1)Oc1ccccc1

IC50 [19]: 6.1 nM
SMILES: COc1nn(-c2cccc(Oc3ccccc3)c2)c(=O)o1
